# Bridge positions count the residues as written; N and C are the ends. Square brackets hold non-standard residues; d marks the D form. Peptide text beside a SMILES is read from it. * marks the point of attachment. ξ: configuration not given here. Bip = N[C@@H](Cc1ccc(-c2ccccc2)cc1)C(=O)O; Phe(3-Me) = Cc1cccc(C[C@H](N)C(=O)O)c1; Cha = N[C@@H](CC1CCCCC1)C(=O)O; dCha = N[C@H](CC1CCCCC1)C(=O)O; dNle = CCCC[C@@H](N)C(=O)O; Carboxymethyl = O=C(O)C*; Orn = NCCC[C@H](N)C(=O)O; Aun = NCCCCCCCCCCC(=O)O; Dab = NCC[C@H](N)C(=O)O; Dap = NC[C@H](N)C(=O)O; AEEA = NCCOCCOCC(=O)O; ξC = NC(CS)C(=O)O
# Target: T1, PD-1/PD-L1 interaction (PE-labeled human PD-L1-Ig binding to Jurkat cell line over-expressing human PD-1) (Homo sapiens, UniProt Q15116)
# T1 construct: expressed in transfected cells; host or cells: Jurkat
# T1 sequence (Q15116 25-288): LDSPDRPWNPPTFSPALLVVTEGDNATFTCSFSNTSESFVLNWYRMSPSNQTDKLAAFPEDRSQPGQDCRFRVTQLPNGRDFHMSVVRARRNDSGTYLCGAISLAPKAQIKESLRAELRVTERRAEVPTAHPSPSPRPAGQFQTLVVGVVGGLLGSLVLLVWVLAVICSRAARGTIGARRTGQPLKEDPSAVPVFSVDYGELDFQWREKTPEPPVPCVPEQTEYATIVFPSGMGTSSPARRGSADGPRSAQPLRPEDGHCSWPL
# Assay: Jurkat-PD-1 Cell Binding High-Content Screening Assay (CBA)
# Assay type: cell-based
# Conditions: Jurkat cell line over-expressing human PD-1; PE-labeled PD-L1-Ig 20 nM final; read-out: Jurkat hPD1-PDL1 IC50
# In short: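 Binding of fluorescent PD-L1-Ig (phycoerythrin on Ig tag, 20 nM final, 1 h) measured by high-content imaging of fixed, Hoechst-counterstained Jurkat-hPD-1 cells. Compound added 2 h at 37° C beforehand, in DMEM with 10% fetal calf serum.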
row,SMILES,IC50 [nM]
1,CC(C)C[C@H]1NC(=O)[C@H](CCCN)NC(=O)[C@H](CCC(=O)O)NC(=O)[C@H](Cc2ccc(-c3ccccc3)cc2)NC(=O)[C@H](C(C)C)NC(=O)[C@H](Cc2c[nH]c3ccccc23)NC(=O)[C@H](CC(=O)O)NC(=O)[C@H](Cc2ccc(OCC(=O)O)cc2)NC(=O)[C@H](CN)NC(=O)CSCC(C(=O)NCCOCCOCC(=O)NCCCCCCCCCCC(=O)O)NC(=O)[C@H](CCCCN)NC(=O)[C@H](C(C)C)NC(=O)[C@H](CC2CCCCC2)NC(=O)[C@H](CCN)NC1=O (stereo partly drawn) [Compound 2665] ({CH2CO}-[Dap]Y(Carboxymethyl)DWV[Bip]E[Orn][dL][Dab][Cha]VK[ξC][AEEA][Aun]-OH; thioether N-14),22.2
2,Cc1cccc(C[C@@H]2NC(=O)[C@H](CC(=O)O)NC(=O)[C@H](Cc3ccc(OCC(=O)O)cc3)NC(=O)[C@H](CN)NC(=O)CSC[C@@H](C(=O)NCCOCCOCC(=O)NCCCCCCCCCCC(=O)O)NC(=O)[C@H](CN)NC(=O)[C@H](C(C)C)NC(=O)[C@H](CC3CCCCC3)NC(=O)[C@H](CCN)NC(=O)[C@@H](CC(C)C)NC(=O)[C@H](CCCN)NC(=O)[C@H](CCC(=O)O)NC(=O)[C@H](Cc3ccc(-c4ccccc4)cc3)NC(=O)[C@H](C(C)C)NC2=O)c1 [Compound 2666] ({CH2CO}-[Dap]Y(Carboxymethyl)D[Phe(3-Me)]V[Bip]E[Orn][dL][Dab][Cha]V[Dap]C[AEEA][Aun]-OH; thioether N-14),18
3,Cc1cccc(C[C@@H]2NC(=O)[C@H](CC(=O)O)NC(=O)[C@H](Cc3ccc(OCC(=O)O)cc3)NC(=O)[C@H](CN)NC(=O)CSC[C@@H](C(=O)NCCOCCOCC(=O)NCCCCCCCCCCC(=O)O)NC(=O)[C@H](CCCN)NC(=O)[C@H](C(C)C)NC(=O)[C@H](CC3CCCCC3)NC(=O)[C@H](CCN)NC(=O)[C@@H](CC(C)C)NC(=O)[C@H](CCCN)NC(=O)[C@H](CCC(=O)O)NC(=O)[C@H](Cc3ccc(-c4ccccc4)cc3)NC(=O)[C@H](C(C)C)NC2=O)c1 [Compound 2667] ({CH2CO}-[Dap]Y(Carboxymethyl)D[Phe(3-Me)]V[Bip]E[Orn][dL][Dab][Cha]V[Orn]C[AEEA][Aun]-OH; thioether N-14),9.6
4,Cc1cccc(C[C@@H]2NC(=O)[C@H](CC(=O)O)NC(=O)[C@H](Cc3ccc(OCC(=O)O)cc3)NC(=O)[C@H](CN)NC(=O)CSC[C@@H](C(=O)N[C@@H](CCCCN)C(=O)NCCOCCOCC(=O)NCCCCCCCCCCC(=O)O)NC(=O)[C@H](CN)NC(=O)[C@H](C(C)C)NC(=O)[C@H](CC3CCCCC3)NC(=O)[C@H](CCN)NC(=O)[C@@H](CC(C)C)NC(=O)[C@H](CCCN)NC(=O)[C@H](CCC(=O)O)NC(=O)[C@H](Cc3ccc(-c4ccccc4)cc3)NC(=O)[C@H](C(C)C)NC2=O)c1 [Compound 2668] ({CH2CO}-[Dap]Y(Carboxymethyl)D[Phe(3-Me)]V[Bip]E[Orn][dL][Dab][Cha]V[Dap]CK[AEEA][Aun]-OH; thioether N-14),10.8
5,Cc1cccc(C[C@@H]2NC(=O)[C@H](CC(=O)O)NC(=O)[C@H](Cc3ccc(OCC(=O)O)cc3)NC(=O)[C@H](CN)NC(=O)CSC[C@@H](C(=O)N[C@@H](CCCCN)C(=O)NCCOCCOCC(=O)NCCCCCCCCCCC(=O)O)NC(=O)[C@H](CCCN)NC(=O)[C@H](C(C)C)NC(=O)[C@H](CC3CCCCC3)NC(=O)[C@H](CCN)NC(=O)[C@@H](CC(C)C)NC(=O)[C@H](CCCN)NC(=O)[C@H](CCC(=O)O)NC(=O)[C@H](Cc3ccc(-c4ccccc4)cc3)NC(=O)[C@H](C(C)C)NC2=O)c1 [Compound 2669] ({CH2CO}-[Dap]Y(Carboxymethyl)D[Phe(3-Me)]V[Bip]E[Orn][dL][Dab][Cha]V[Orn]CK[AEEA][Aun]-OH; thioether N-14),11.5
6,Cc1cccc(C[C@@H]2NC(=O)[C@H](CC(=O)O)NC(=O)[C@H](Cc3ccc(OCC(=O)O)cc3)NC(=O)[C@H](CN)NC(=O)CSC[C@@H](C(=O)N[C@@H](CCCCN)C(=O)NCCOCCOCC(=O)NCCCCCCCCCCC(=O)O)NC(=O)[C@H](CCCNC(=N)N)NC(=O)[C@H](C(C)C)NC(=O)[C@H](CC3CCCCC3)NC(=O)[C@H](CCN)NC(=O)[C@@H](CC(C)C)NC(=O)[C@H](CCCN)NC(=O)[C@H](CCC(=O)O)NC(=O)[C@H](Cc3ccc(-c4ccccc4)cc3)NC(=O)[C@H](C(C)C)NC2=O)c1 [Compound 2670] ({CH2CO}-[Dap]Y(Carboxymethyl)D[Phe(3-Me)]V[Bip]E[Orn][dL][Dab][Cha]VRCK[AEEA][Aun]-OH; thioether N-14),10.8
7,CC(C)C[C@H]1NC(=O)[C@H](CCCN)NC(=O)[C@H](CCC(=O)O)NC(=O)[C@H](Cc2ccc(-c3ccccc3)cc2)NC(=O)[C@H](C(C)C)NC(=O)[C@H](Cc2c[nH]c3ccccc23)NC(=O)[C@H](CC(=O)O)NC(=O)[C@H](Cc2ccc(OCC(=O)O)cc2)NC(=O)[C@H](Cc2ccc(OCC(=O)O)cc2)NC(=O)CSC[C@@H](C(=O)NCCOCCOCC(=O)N[C@@H](CCN)C(=O)NCCCCCCCCCCC(=O)O)NC(=O)[C@H](CCCNC(=N)N)NC(=O)[C@H](C(C)C)NC(=O)[C@H](CC2CCCCC2)NC(=O)[C@H](CCN)NC1=O [Compound 2671] ({CH2CO}-Y(Carboxymethyl)Y(Carboxymethyl)DWV[Bip]E[Orn][dL][Dab][Cha]VRC[AEEA][Dab][Aun]-OH; thioether N-14),14.1
8,CCCC[C@H]1NC(=O)[C@H](CCCN)NC(=O)[C@H](C(C)C)NC(=O)[C@H](Cc2ccc(-c3ccccc3)cc2)NC(=O)[C@H](C(C)C)NC(=O)[C@H](Cc2c[nH]c3ccccc23)NC(=O)[C@H](CC(=O)O)NC(=O)[C@H](Cc2ccc(OCC(=O)O)cc2)NC(=O)[C@H](CN)NC(=O)CSC[C@@H](C(=O)NCCOCCOCC(=O)N[C@@H](CCN)C(=O)NCCCCCCCCCCC(=O)O)NC(=O)[C@H](CCCCN)NC(=O)[C@H](C(C)C)NC(=O)[C@H](CC2CCCCC2)NC(=O)[C@H](CCN)NC1=O [Compound 2672] ({CH2CO}-[Dap]Y(Carboxymethyl)DWV[Bip]V[Orn][dNle][Dab][Cha]VKC[AEEA][Dab][Aun]-OH; thioether N-14),22.7
9,CC(C)[C@@H]1NC(=O)[C@H](CC2CCCCC2)NC(=O)[C@H](CCN)NC(=O)[C@@H](CC2CCCCC2)NC(=O)[C@H](CCCN)NC(=O)[C@H](C(C)C)NC(=O)[C@H](Cc2ccc(-c3ccccc3)cc2)NC(=O)[C@H](C(C)C)NC(=O)[C@H](Cc2c[nH]c3ccccc23)NC(=O)[C@H](CC(=O)O)NC(=O)[C@H](Cc2ccc(OCC(=O)O)cc2)NC(=O)[C@H](CN)NC(=O)CSC[C@@H](C(=O)NCCOCCOCC(=O)N[C@@H](CCN)C(=O)NCCCCCCCCCCC(=O)O)NC(=O)[C@H](CCCCN)NC1=O [Compound 2673] ({CH2CO}-[Dap]Y(Carboxymethyl)DWV[Bip]V[Orn][dCha][Dab][Cha]VKC[AEEA][Dab][Aun]-OH; thioether N-14),22.5
10,CCCC[C@H]1NC(=O)[C@H](CCCN)NC(=O)[C@H](C(C)C)NC(=O)[C@H](Cc2ccc(-c3ccccc3)cc2)NC(=O)[C@H](C(C)C)NC(=O)[C@H](Cc2cccc(C)c2)NC(=O)[C@H](CC(=O)O)NC(=O)[C@H](Cc2ccc(OCC(=O)O)cc2)NC(=O)[C@H](CN)NC(=O)CSC[C@@H](C(=O)NCCOCCOCC(=O)N[C@@H](CCN)C(=O)NCCCCCCCCCCC(=O)O)NC(=O)[C@H](CN)NC(=O)[C@H](C(C)C)NC(=O)[C@H](CC2CCCCC2)NC(=O)[C@H](CCN)NC1=O [Compound 2674] ({CH2CO}-[Dap]Y(Carboxymethyl)D[Phe(3-Me)]V[Bip]V[Orn][dNle][Dab][Cha]V[Dap]C[AEEA][Dab][Aun]-OH; thioether N-14),12
11,Cc1cccc(C[C@@H]2NC(=O)[C@H](CC(=O)O)NC(=O)[C@H](Cc3ccc(OCC(=O)O)cc3)NC(=O)[C@H](CN)NC(=O)CSC[C@@H](C(=O)NCCOCCOCC(=O)N[C@@H](CCN)C(=O)NCCCCCCCCCCC(=O)O)NC(=O)[C@H](CN)NC(=O)[C@H](C(C)C)NC(=O)[C@H](CC3CCCCC3)NC(=O)[C@H](CCN)NC(=O)[C@@H](CC3CCCCC3)NC(=O)[C@H](CCCN)NC(=O)[C@H](C(C)C)NC(=O)[C@H](Cc3ccc(-c4ccccc4)cc3)NC(=O)[C@H](C(C)C)NC2=O)c1 [Compound 2675] ({CH2CO}-[Dap]Y(Carboxymethyl)D[Phe(3-Me)]V[Bip]V[Orn][dCha][Dab][Cha]V[Dap]C[AEEA][Dab][Aun]-OH; thioether N-14),24.1
12,CCCC[C@H]1NC(=O)[C@H](CCCN)NC(=O)[C@H](C(C)C)NC(=O)[C@H](Cc2ccc(-c3ccccc3)cc2)NC(=O)[C@H](C(C)C)NC(=O)[C@H](Cc2cccc(C)c2)NC(=O)[C@H](CC(=O)O)NC(=O)[C@H](Cc2ccc(OCC(=O)O)cc2)NC(=O)[C@H](CN)NC(=O)CSC[C@@H](C(=O)NCCOCCOCC(=O)N[C@@H](CCN)C(=O)NCCCCCCCCCCC(=O)O)NC(=O)[C@H](CCCN)NC(=O)[C@H](C(C)C)NC(=O)[C@H](CC2CCCCC2)NC(=O)[C@H](CCN)NC1=O [Compound 2676] ({CH2CO}-[Dap]Y(Carboxymethyl)D[Phe(3-Me)]V[Bip]V[Orn][dNle][Dab][Cha]V[Orn]C[AEEA][Dab][Aun]-OH; thioether N-14),10.2
13,Cc1cccc(C[C@@H]2NC(=O)[C@H](CC(=O)O)NC(=O)[C@H](Cc3ccc(OCC(=O)O)cc3)NC(=O)[C@H](CN)NC(=O)CSC[C@@H](C(=O)NCCOCCOCC(=O)N[C@@H](CCN)C(=O)NCCCCCCCCCCC(=O)O)NC(=O)[C@H](CCCN)NC(=O)[C@H](C(C)C)NC(=O)[C@H](CC3CCCCC3)NC(=O)[C@H](CCN)NC(=O)[C@@H](CC3CCCCC3)NC(=O)[C@H](CCCN)NC(=O)[C@H](C(C)C)NC(=O)[C@H](Cc3ccc(-c4ccccc4)cc3)NC(=O)[C@H](C(C)C)NC2=O)c1 [Compound 2677] ({CH2CO}-[Dap]Y(Carboxymethyl)D[Phe(3-Me)]V[Bip]V[Orn][dCha][Dab][Cha]V[Orn]C[AEEA][Dab][Aun]-OH; thioether N-14),18
